IC50 data for 17 molecules are collected here from US11780840B2 (Incyte Corporation, priority 2020, dated 2023).

For assay [1], the target named is T1, catalytic domain (JH1, amino acids 826-1132) of human JAK2 (Homo sapiens, UniProt O60674).
T1 construct: catalytic domain (JH1, amino acids 826-1132) of human JAK2; FLAG (N); purchased Carna Biosciences 08-445-20N; host or cells: baculovirus expression system
In words: JAK2 LanthaScreen JH1 Binding Assay. To be noted: JAK2 JH1 (1.5 nM), 50 nM fluorescent JAK2-JH1 tracer, 2 hours at 25° C.; read-out: JH1 BIND. Summed up:
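FLAG-tagged, biotinylated JAK2 JH1 (aa 826-1132, baculovirus-expressed; 1.5 nM) incubated 2 h at 25° C with compounds, 50 nM fluorescent tracer and 0.5 nM Streptavidin-Tb in Tris pH 7.5 buffer with MgCl2, Brij-35, BSA, EGTA, glycerol, DTT. Nonspecific binding defined with 2 mM ATP; TR-FRET IC50 from four-parameter fit.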
(In general: In TR-FRET formats the signal depends on donor and acceptor labels being close together.)

The target in assay [2] is T2, pseudo-kinase domain (JH2, amino-acids 536-812 with 3 surface mutations W659A, W777A, F794H) of human Wild Type JAK2 (Homo sapiens, UniProt O60674, F794H/W659A/W777A).
T2 construct: pseudo-kinase domain (JH2, amino-acids 536-812 with 3 surface mutations W659A, W777A, F794H); His (C); Avi (biotinylated) (C); purchased BPS Bioscience 79463; host or cells: baculovirus expression system
In words: JAK2 LanthaScreen JH2-WT Binding Assay. As to conditions: JAK2 JH2-WT (0.145 nM), 50 nM Fluorescent JAK2-JH2 Tracer, 1 hour at 25° C.; read-out: JH2 BIND WT. Summed up: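 Compounds, serially diluted, were mixed with 0.145 nM JH2 domain, 50 nM tracer and 0.25 nM streptavidin-Tb cryptate, then incubated 1 hour at 25° C before LanthaScreen reading. Wells containing 2 mM ATP defined non-specific binding. Four-parameter dose-response curves gave IC50.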

Assay [3] concerns the target T3, pseudo-kinase domain (JH2, amino-acids 536-812 with 3 surface mutations W659A, W777A, F794H) of human V617F mutant JAK2 (Homo sapiens, UniProt O60674, F794H/V617F/W659A/W777A).
T3 construct: pseudo-kinase domain (JH2, amino-acids 536-812 with 3 surface mutations W659A, W777A, F794H); His (C); Avi (biotinylated) (C); purchased BPS Bioscience 79498; host or cells: baculovirus expression system
In words: JAK2 LanthaScreen JH2-V617F Binding Assay. To be noted: JAK2 JH2-V617F (0.26 nM), 50 nM Fluorescent JAK2-JH2 Tracer, 1 hour at 25° C.; read-out: JH2 BIND V617F. Summed up: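 IC50 values came from four-parameter dose-response fits of LanthaScreen signal, read after compounds sat 1 hour at 25° C with 0.26 nM baculovirus-expressed biotinylated protein, 50 nM fluorescent tracer and 0.25 nM streptavidin-Tb cryptate. Non-specific binding was set with 2 mM ATP.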

T1 sequence (O60674 826-1132): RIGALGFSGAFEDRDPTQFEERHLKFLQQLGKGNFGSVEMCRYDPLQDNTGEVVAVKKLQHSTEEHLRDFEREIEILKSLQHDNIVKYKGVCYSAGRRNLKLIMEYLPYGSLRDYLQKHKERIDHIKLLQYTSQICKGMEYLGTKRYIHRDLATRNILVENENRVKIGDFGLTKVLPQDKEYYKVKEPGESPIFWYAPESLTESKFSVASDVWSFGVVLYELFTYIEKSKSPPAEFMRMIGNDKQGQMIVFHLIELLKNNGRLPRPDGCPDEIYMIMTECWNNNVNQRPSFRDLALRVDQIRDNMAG
T3 sequence (O60674 536-812 V617F/W659A/W777A/F794H): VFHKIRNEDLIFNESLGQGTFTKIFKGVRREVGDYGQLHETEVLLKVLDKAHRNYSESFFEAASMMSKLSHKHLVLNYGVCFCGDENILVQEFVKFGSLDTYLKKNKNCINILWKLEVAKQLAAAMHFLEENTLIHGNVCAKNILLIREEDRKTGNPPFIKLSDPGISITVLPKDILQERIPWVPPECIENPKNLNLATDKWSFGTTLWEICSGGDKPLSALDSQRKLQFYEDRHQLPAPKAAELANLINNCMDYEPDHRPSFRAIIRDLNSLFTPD
T2 sequence (O60674 536-812 W659A/W777A/F794H): as the sequence (O60674 536-812 V617F/W659A/W777A/F794H) above, with F82V counted along it

On to `CC(C)n1c(=O)n(C)c2cnc3[nH]c(-c4cnn(CC(C)(C)O)c4)c(-c4ccc5cnccc5c4)c3c21` [Example 77, 7-(1-(2-Hydroxy-2-methylpropyl)-1H-pyrazol-4-yl)-1-isopropyl-8-(isoquinolin-6-yl)-3-methyl-3,6-dihydroimidazo[4,5-d]pyrrolo[2,3-b]pyridin-2(1H)-one], for which the IC50 was more than 1000 nM in assay [1], 10 to 100 nM in assay [2] and 10 to 100 nM in assay [3].
As to `CCN1CCN(c2ccc(-c3cc4c(ncc5c4n(CC(=O)N4CCCCC4)c(=O)n5C)[nH]3)cc2)CC1` [Example 17, 7-(4-(4-Ethylpiperazin-1-yl)phenyl)-3-methyl-1-(2-oxo-2-(piperidin-1-yl)ethyl)-3,6-dihydroimidazo[4,5-d]pyrrolo[2,3-b]pyridin-2(1H)-one], the IC50 in assay [1], in assay [2] and in assay [3] was more than 1000 nM each time.
As for `CC(C)n1c(=O)n(C)c2cnc3[nH]c(-c4cnn(CC(C)(C)O)c4)c(-c4cc5cnccc5s4)c3c21` [Example 75, 7-(1-(2-Hydroxy-2-methylpropyl)-1H-pyrazol-4-yl)-1-isopropyl-3-methyl-8-(thieno[3,2-c]pyridin-2-yl)-3,6-dihydroimidazo[4,5-d]pyrrolo[2,3-b]pyridin-2(1H)-one], the values for the IC50 in assay [1], in assay [2] and in assay [3] were 500 to 1000 nM, not above 10 nM and not above 10 nM, respectively.
On to `CC(C)C(=O)c1[nH]c2ncc3c(c2c1-c1ccccc1)n(C)c(=O)n3C` [Example 43, 7-Isobutyryl-1,3-dimethyl-8-phenyl-3,6-dihydroimidazo [4,5-d]pyrrolo[2,3-b]pyridin-2(1H)-one], for which the IC50 in assay [1], in assay [2] and in assay [3] was more than 1000 nM each time.
`COc1ccc(-c2[nH]c3ncc4c(c3c2-c2ccc3c(cnn3C)c2)n(C2CCCC2)c(=O)n4C)cn1` [Example 64, 1-Cyclopentyl-7-(6-methoxypyridin-3-yl)-3-methyl-8-(1-methyl-1H-indazol-5-yl)-3,6-dihydroimidazo[4,5-d]pyrrolo[2,3-b]pyridin-2(1H)-one]: the figures for the IC50 in assay [1], in assay [2] and in assay [3] were more than 1000 nM, not above 10 nM and 10 to 100 nM, respectively.
Take `COC1CC=C(c2c(-c3ccc(CN4CCC(S(C)(=O)=O)CC4)cc3)[nH]c3ncc4c(c23)n(C2CCCC2)c(=O)n4C)CC1` (stereo not drawn) [Example 32, 1-Cyclopentyl-8-(4-methoxycyclohex-1-en-1-yl)-3-methyl-7-(4-((4-(methylsulfonyl)piperidin-1-yl)methyl)phenyl)-3,6-dihydroimidazo[4,5-d]pyrrolo[2,3-b] pyridin-2(1H)-one]: the IC50 in assay [1] is 10 to 100 nM; in assay [2] it was not above 10 nM; in assay [3], not above 10 nM.
Turning to `COc1ccc(-c2c(-c3cnn(Cc4ccncc4)c3)[nH]c3ncc4c(c23)n(C2CCCC2)c(=O)n4C)cc1` [Example 59, 1-Cyclopentyl-8-(4-methoxyphenyl)-3-methyl-7-(1-(pyridin-4-ylmethyl)-1H-pyrazol-4-yl)-3,6-dihydroimidazo[4,5-d]pyrrolo[2,3-b]pyridin-2(1H)-one], the IC50 in assay [1] was 100 to 500 nM; in assay [2], not above 10 nM; in assay [3], not above 10 nM.
On to `Cn1cc(-c2[nH]c3ncc4c(c3c2-c2ccc3c(cnn3C)c2)n([C@H]2CC[C@@H](CC#N)CC2)c(=O)n4C)cn1` [Example 102, 2-((1S,4S)-4-(3-Methyl-8-(1-methyl-1H-indazol-5-yl)-7-(1-methyl-1H-pyrazol-4-yl)-2-oxo-3,6-dihydroimidazo[4,5-d]pyrrolo[2,3-b]pyridin-1(2H)-yl)cyclohexyl)acetonitrile], for which the IC50 in assay [1] is 10 to 100 nM; in assay [2] it was not above 10 nM; in assay [3] it was not above 10 nM.
`Cn1c(=O)n(C(C)(C)C)c2c3cc(-c4ccc(CN5CCC(S(C)(=O)=O)CC5)cc4)[nH]c3ncc21` [Example 11, 1-(tert-Butyl)-3-methyl-7-(4-((4-(methylsulfonyl)piperidin-1-yl)methyl)phenyl)-3,6-dihydroimidazo[4,5-d]pyrrolo[2,3-b]pyridin-2(1H)-one]: the IC50 in assay [1], in assay [2] and in assay [3] was 10 to 100 nM throughout.
Take `Cn1c(=O)n(C2CCCC2)c2c3c(C4=CCOCC4)c(-c4ccc(CN5CCC(S(C)(=O)=O)CC5)cc4)[nH]c3ncc21` [Example 33, 1-Cyclopentyl-8-(3,6-dihydro-2H-pyran-4-yl)-3-methyl-7-(4-((4-(methylsulfonyl)piperidin-1-yl)methyl)phenyl)-3,6-dihydroimidazo[4,5-d]pyrrolo[2,3-b] pyridin-2(1H)-one]: the IC50 is 10 to 100 nM in assay [1], not above 10 nM in assay [2] and not above 10 nM in assay [3].
With `Cn1ncc2cc(-c3c(CCO)[nH]c4ncc5c(c34)n(C3CCCC3)c(=O)n5C)ccc21` [Example 70, 1-Cyclopentyl-7-(2-hydroxyethyl)-3-methyl-8-(1-methyl-1H-indazol-5-yl)-3,6-dihydroimidazo[4,5-d]pyrrolo[2,3-b]pyridin-2(1H)-one], the IC50 in assay [1] was more than 1000 nM; in assay [2], 100 to 500 nM; in assay [3] it was 100 to 500 nM.
For `Cn1ncc2cc(-c3c(C(=O)NC4CC4)[nH]c4ncc5c(c34)n(C3CCCC3)c(=O)n5C)ccc21` [Example 98, 1-Cyclopentyl-N-cyclopropyl-3-methyl-8-(1-methyl-1H-indazol-5-yl)-2-oxo-1,2,3,6-tetrahydroimidazo [4,5-d]pyrrolo[2,3-b]pyridine-7-carboxamide], the IC50 in assay [1] is more than 1000 nM; in assay [2], 10 to 100 nM; in assay [3] it was 10 to 100 nM.
Take `CS(=O)(=O)C1CCN(Cc2ccc(-c3cc4c(ncc5c4n(-c4ccccc4)c(=O)n5CCO)[nH]3)cc2)CC1` [Example 5, 3-(2-Hydroxyethyl)-7-(4-((4-(methylsulfonyl)piperidin-1-yl)methyl)phenyl)-1-phenyl-3,6-dihydroimidazo[4,5-d]pyrrolo[2,3-b]pyridin-2(1H)-one]: the IC50 in assay [1] is 100 to 500 nM; in assay [2], more than 1000 nM; in assay [3], more than 1000 nM.
Take `CC(C)n1c(=O)n(C)c2cnc3[nH]c(-c4cnn(C)c4)c(C#Cc4ccccc4)c3c21` [Example 100, 1-Isopropyl-3-methyl-7-(1-methyl-1H-pyrazol-4-yl)-8-(phenylethynyl)-3,6-dihydroimidazo[4,5-d]pyrrolo[2,3-b]pyridin-2(1H)-one]: the IC50 in assay [1] lay in the range of 500 to 1000 nM; in assay [2] it was 100 to 500 nM; in assay [3], 100 to 500 nM.
With `Cn1c(=O)n(C2CCCC2)c2c3c(-c4cc5cnccc5s4)c(C4CC4)[nH]c3ncc21` [Example 71, 1-Cyclopentyl-7-cyclopropyl-3-methyl-8-(thieno[3,2-c]pyridin-2-yl)-3,6-dihydroimidazo[4,5-d]pyrrolo[2,3-b]pyridin-2(1H)-one], the figures for the IC50 in assay [1], in assay [2] and in assay [3] were 500 to 1000 nM, not above 10 nM and 10 to 100 nM, respectively.
For the molecule `CC(C)n1c(=O)n(C)c2cnc3[nH]c(-c4cnn(CC(C)(C)O)c4)c(-c4ccc(COC5CCOCC5)cc4)c3c21` [Example 87, 7-(1-(2-Hydroxy-2-methylpropyl)-1H-pyrazol-4-yl)-1-isopropyl-3-methyl-8-(4-(((tetrahydro-2H-pyran-4-yl)oxy)methyl)phenyl)-3,6-dihydroimidazo[4,5-d]pyrrolo[2,3-b]pyridin-2(1H)-one], the IC50 in assay [1] is more than 1000 nM; in assay [2], not above 10 nM; in assay [3], not above 10 nM.
In the case of `Cn1c(=O)n(C2CCOCC2)c2c3c(-c4ccc(C5(C#N)CC5)cc4)c(-c4ccc(CN5CCC(S(C)(=O)=O)CC5)cc4)[nH]c3ncc21` [Example 49, 1-(4-(3-Methyl-7-(4-((4-(methylsulfonyl)piperidin-1-yl)methyl)phenyl)-2-oxo-1-(tetrahydro-2H-pyran-4-yl)-1,2,3,6-tetrahydroimidazo [4,5-d]pyrrolo[2,3-b]pyridin-8-yl)phenyl)cyclo-propane-1-carbonitrile], the IC50 in assay [1] was 100 to 500 nM; in assay [2], not above 10 nM; in assay [3], not above 10 nM.
